From patent publication US9113629B2, “4-amino-6-(4-substituted-phenyl)-picolinates and 6-amino-2-(4-substituted-phenyl)-pyrimidine-4-carboxylates and their use as herbicides” (DOW AGROSCIENCES LLC, priority 2013, dated 2015)

Tests used:
Test in all cases: Post-emergent Test III, herbicidal activity in wheat and barley
Format in all cases: in vivo
[1] = system: APESV: bentgrass (Apera spica-venti); details: Table 9, 21 d; for pest or weed control at 35 g/ha / pest or weed control at 70 g/ha: Apera spica-venti, post-emergence, 504 h, post-emergent, read-out: Visual Growth Reduction (%) 21 Days After Application APESV; for pest or weed control at 35 g/ha: 35 g ai/ha; for pest or weed control at 70 g/ha: 70 g ai/ha; for GR50 APESV: dose for 50 percent growth reduction; for GR50 APESV / GR80 APESV: probit analysis; for GR80 APESV: dose for 80 percent growth reduction
Summary of the method: (§1)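 Plants at the second to third true-leaf stage, grown in a greenhouse at about 18/17 °C with a 14 h photoperiod, were sprayed post-emergence at 187 L/ha with the high rate and ½× to 1/16× serial dilutions in an acetone/DMSO/crop-oil/surfactant carrier. Injury was rated visually at 21 d on a 0–100% scale, and GR20–GR90 were derived by probit analysis.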

[2] = system: HORSS: barley, including spring and winter (Hordeum vulgare); details: Table 9, 21 d; for pest or weed control at 35 g/ha / pest or weed control at 70 g/ha: Hordeum vulgare, post-emergence, 504 h, post-emergent, read-out: Visual Growth Reduction (%) 21 Days After Application HORSS; for pest or weed control at 35 g/ha: 35 g ai/ha; for pest or weed control at 70 g/ha: 70 g ai/ha; for GR20 HORSS: dose for 20 percent growth reduction, probit analysis
Summary of the method: as §1

[3] = system: KCHSC: kochia (Kochia scoparia); details: Table 9, 21 d; for pest or weed control at 35 g/ha / pest or weed control at 70 g/ha: Bassia scoparia, post-emergence, 504 h, post-emergent, read-out: Visual Growth Reduction (%) 21 Days After Application KCHSC; for pest or weed control at 35 g/ha: 35 g ai/ha; for pest or weed control at 70 g/ha: 70 g ai/ha; for GR50 KCHSC: dose for 50 percent growth reduction; for GR50 KCHSC / GR80 KCHSC: probit analysis; for GR80 KCHSC: dose for 80 percent growth reduction
Summary of the method: as §1

[4] = system: LOLSS: ryegrass including, Italian ryegrass (Lolium multiflorum), rigid ryegrass (Lolium rigidum), annual ryegrass (Lolium multiflorum subsp. Gaudini); details: Table 9, probit analysis, 21 d; for GR50 LOLSS: dose for 50 percent growth reduction; for GR80 LOLSS: dose for 80 percent growth reduction
Summary of the method: as §1

[5] = system: SETVI: green foxtail (Setaria viridis); details: Table 9, 21 d; for pest or weed control at 35 g/ha / pest or weed control at 70 g/ha: Setaria viridis, post-emergence, 504 h, post-emergent, read-out: Visual Growth Reduction (%) 21 Days After Application SETVI; for pest or weed control at 35 g/ha: 35 g ai/ha; for pest or weed control at 70 g/ha: 70 g ai/ha; for GR50 SETVI: dose for 50 percent growth reduction; for GR50 SETVI / GR80 SETVI: probit analysis; for GR80 SETVI: dose for 80 percent growth reduction
Summary of the method: as §1

[6] = system: TRZSS: wheat, including spring and winter (Triticum aestivum); details: Table 9, 21 d; for GR20 TRZSS: dose for 20 percent growth reduction, probit analysis; for pest or weed control at 35 g/ha / pest or weed control at 70 g/ha: Triticum aestivum, post-emergence, 504 h, post-emergent, read-out: Visual Growth Reduction (%) 21 Days After Application TRZSS; for pest or weed control at 35 g/ha: 35 g ai/ha; for pest or weed control at 70 g/ha: 70 g ai/ha
Summary of the method: as §1

Row | Structure (SMILES) | pest or weed control at 35 g/ha [1] [%] | pest or weed control at 70 g/ha [1] [%] | GR50 APESV [1] [g ai/ha] | GR80 APESV [1] [g ai/ha] | pest or weed control at 35 g/ha [2] [%] | pest or weed control at 70 g/ha [2] [%] | GR20 HORSS [2] [g ai/ha] | pest or weed control at 35 g/ha [3] [%] | pest or weed control at 70 g/ha [3] [%] | GR50 KCHSC [3] [g ai/ha] | GR80 KCHSC [3] [g ai/ha] | GR50 LOLSS [4] [g ai/ha] | GR80 LOLSS [4] [g ai/ha] | pest or weed control at 35 g/ha [5] [%] | pest or weed control at 70 g/ha [5] [%] | GR50 SETVI [5] [g ai/ha] | GR80 SETVI [5] [g ai/ha] | GR20 TRZSS [6] [g ai/ha] | pest or weed control at 35 g/ha [6] [%] | pest or weed control at 70 g/ha [6] [%]
1 | C#Cc1ccc(-c2nc(N)c(OC)c(C(=O)O)n2)cc1 [Compound 28] | 0 to 29 | 0 to 29 | >140 | >140 | 0 to 29 | 30 to 44 | 43 | 0 to 29 | 30 to 44 | 88 | >140 | >140 | >140 | 0 to 29 | 0 to 29 | >140 | >140 | 17 | 30 to 44 | 60 to 74
2 | COC(=O)c1nc(-c2ccc(Br)cc2F)nc(N)c1OC [Compound 35] | 0 to 29 | 30 to 44 | 113 | >140 | 60 to 74 | 60 to 74 | 8 | 75 to 84 | 85 to 94 | 8 | 37 | 126 | >140 | 0 to 29 | 30 to 44 | 79 | >140 | 2 | 75 to 84 | 75 to 84
